From ChEMBL document CHEMBL1147336, “A new antibacterial sesquiterpene from Premna oligotricha” (1993)
≈ marks a conversion by molar mass, not a printed value. Calls of active or inactive are those of the source. No cut-off for these calls is given here.

Assays:
Bacillus subtilis = experiment: Antibacterial activity against Bacillus subtilis NCTC 10452; format: functional
Escherichia coli = experiment: Antibacterial activity against Escherichia coli NCTC 9001 at 200 ug/ml; format: functional, organism-based
Pseudomonas aeruginosa = experiment: Antibacterial activity against Pseudomonas aeruginosa NCTC 6750 at 200 ug/ml; format: functional, organism-based
Bacillus pumilus = experiment: Antibacterial activity against Bacillus pumilus NCTC 10327; format: functional
Staphylococcus aureus = experiment: Antibacterial activity against Staphylococcus aureus NCTC 6571; format: functional
Enterococcus faecalis = experiment: Antibacterial activity against Streptococcus faecalis NCTC 775; format: functional

MIC (Bacillus subtilis) [µg/mL] | MIC (Bacillus pumilus) [µg/mL] | MIC (Staphylococcus aureus) [µg/mL] | MIC (Enterococcus faecalis) [µg/mL] | SMILES | Activity (Escherichia coli) | Activity (Pseudomonas aeruginosa)
100 (≈ 420 µM) | 50 (≈ 210 µM) | 50 (≈ 210 µM) | 150 (≈ 629 µM) | C=C(CC[C@@H]1C(C)(C)CCC[C@]1(C)O)C(C)=O | inactive | inactive
3.75 | 0.94 | 3.75 | 15 | CN[C@@H]1[C@H](O[C@H]2[C@H](O[C@H]3[C@H](O)[C@@H](O)[C@H](N=C(N)N)[C@@H](O)[C@@H]3N=C(N)N)O[C@@H](C)[C@]2(O)C=O)O[C@@H](CO)[C@H](O)[C@H]1O.CN[C@@H]1[C@H](O[C@H]2[C@H](O[C@H]3[C@H](O)[C@@H](O)[C@H](N=C(N)N)[C@@H](O)[C@@H]3N=C(N)N)O[C@@H](C)[C@]2(O)C=O)O[C@@H](CO)[C@H](O)[C@H]1O.O=S(=O)(O)O.O=S(=O)(O)O.O=S(=O)(O)O [STREPTOMYCIN SULFATE] |  | 
